The values that follow are results of earlier work, collected in patent publication US20050186294A1 (priority 1999, published 2005).

SMILES strings stand for the structures. Where two headings read alike, the source gives them in different places.

The conditions of data set [1]: larger molecular weight molecules such as Testosterone.
The subject of another data set is penile erection. The following applies: oral, men.
Another data set deals with 5 Phosphodiesterase (Homo sapiens, UniProt O76074). The following applies: in vitro, similar Molar concentrations.
The mark [2] stands for this setting: after oral arginine supplementation (6 g).

In the case of `CC1CCC(C(C)C)C(O)C1` (stereo not drawn) [Menthol], the “increase of membrane permeability” value in data set [1] is given as 2-4 times.

Turning to `CCCc1nn(C)c2c(=O)[nH]c(-c3cc(S(=O)(=O)N4CCN(C)CC4)ccc3OCC)nc12` [sildenafil], the figures for the “effectiveness to create a penile erection” value with penile erection (after first use) and in the data set with penile erection (by the eighth use) were 54% and 86%, respectively. The “inhibition of 5 Phosphodiesterase activity” value on 5 Phosphodiesterase is listed as 85%.

In the case of `N=C(N)NCCC[C@H](N)C(=O)O` [L-arginine], the “L-arginine level in the blood” value (after infusion of 6 g) is given as 822 nM/ml and the “L-arginine level in the blood” value (after infusion of 30 g) is 6223 nmol/mL. For the same compound, the blood concentration under setting [2] is 310 nmol/mL. Further, in the data set with cGMP (after infusion of 30 g and 6 g), the “detectable cGMP excretion rates in urine” value was “rise in detectable cGMP excretion rates in urine”. Further, in the data set on cGMP (setting [2]), the “increases in detectable cGMP” value was “not statistically significant”.
